The record followed here is patent publication US20040033982A1, “Viral inhibition by n-docosanol” (priority 2001, published 2004).

As usually defined, the inhibition is the change of the read-out against control, counted positive when it falls.

Each structure is given as a SMILES string.

Data set [1] concerns HSV-1 or HSV-2. The data set is described as follows: Inhibition of HSV production and plaque formation in Vero cells. Type of data set: cell-based. As for the experimental part:
Cultured cells were placed in 35-mm wells (2 ml; 3×10^5 cells/ml) in DMEM containing L-glucamine, pennstrep (cDMEM) and supplemented with 5% FCS. n-Docosanol or the corresponding control vehicle (lacking n-docosanol) was added at the outset of the culture. All cultures were then inoculated with 175 p.f.u. of HSV-1 or HSV-2.
The cultures were incubated for an additional 42-44 h, washed once with fresh medium, stained and fixed (the staining/fixative consists of 1.25 mg/ml of carbol-fuchsin plus 2.5 mg/ml of methylene blue in methanol) and then scored for HSV-induced plaques using a dissecting microscope (10× magnification). Thc data are averages of duplicate cultures, which varied by no more than 5-10%.

In data set [2] the test system is HSV. The data set is described as follows: HSV-induced plaques in Vero versus MDBK cells. In kind it is cell-based. The source says:
Of the counts that are metabolized in two cells lines, the relative amounts in the major classes of phosphatides that are formed, phosphatidylcholine and phosphatidylethanolamine, are not different in the two cell lines.

For data set [3], the system named is HSV. The data set is described as follows: HSV antigens by ELISA, ICP4 immunofluorescence, secondary plaque assay. In kind it is cell-based. The source says:
Thus, the amounts of both HSV core and envelope protein antigens detectable by ELISA, as well as the numbers of infected cells expressing the intranuclear HSV-specific immediate-early protein, ICP4, by immunofluorescence, are reduced by more than 80%. Finally, the replication of infectious virions as measured in secondary plaque assay cultures is markedly diminished by 99% or more in n-docosanol treated cells.
A general note: In an ELISA, binding on a coated surface is turned into a signal by an enzyme label.

For data set [4], the system named is HSV. The data set is described as follows: Inhibition of HSV replication, Tetronic versus Pluronic suspension. Type of data set: cell-based. The source says:
An initial step in conducting such studies involved switching to a different surfactant or suspending n-docosanol. Tetronic 908 is closely related to Pluronic F68; both are block copolymers of ethylene oxide and propylene oxide. However, whereas Pluronic is a bifunctionaI polymer with a molecular weight of 8,400, Tetronic 908 is a tetrfunctional copolymer, produced by adding propylene oxide and ethylene oxide to ethylenediamine and resulting in a molecule with an average molecular weight of 25,000. […] This appears to relate to the 3-fold higher levels of metabolic conversion in cells treated with n-docosanol in Tetronic.

For data set [5], the system named is HSV-1. The data set is described as follows: HSV-1 plaque assay in Vero cells, time of drug incubation and removal. In kind it is cell-based. The note with it: 9 mM. As for the experimental part:
(A) Vero cells were plated and incubated with 9 mM n-docosanol, the corresponding control vehicle or no addition for 0, 3, 6, or 24 h prior to the addition of HSV-1. The viral plaque assay was continued and the number of p.f.u. determined. The data are expressed as % inhibition compared to wells receiving no treatment. (B) Vero cells were plated, n-docosanol or the corresponding control vehicle was added and cells were incubated at 37° C. in 10% humidified CO2. After 21, 24, 25, 26, and 27 h (6, 3, 2, 1, and 0 h before the addition of HSV-1), media containing drug was removed and the cells were washed with media. After a total of 27 h, HSV-1 was added to all wells. Two hours later virus-containing media was removed and replaced with fresh media lacking virus or drugs. The cultures were incubated and processed for determination of the number of HSV-induced plaques as in (A). […]
The cultures were incubated for an additional 42-44 h, washed once with fresh medium, stained and fixed (the staining/fixative consists of 1.25 mg/ml of carbol-fuchsin plus 2.5 mg/ml of methylene blue in methanol) and then scored for HSV-induced plaques using a dissecting microscope (10× magnification). […]

Data set [6] relates to acyclovir-resistant HSV-2. In words: Plaque formation by acyclovir-resistant HSV-2 in Vero cells. Type of data set: cell-based. The note with it: FIG. 7, Panel B. As for the experimental part:
FIG. 7 depicts data showing that n-docosanol inhibits acyclovir-resistant HSV-2. Vero cells were cultured in 35-mm wells (6×10^5 cells per well) in medium alone (=none) or in the presence of the indicated concentration of acyclovir, n-docosanol-Pluronic F-68 suspension or control suspension (Pluronic F-68 only). The cultures were inoculated 24 hours later with 150 PFU of either wild-type HSV-2 or an acyclovir-resistant laboratory isolate from the wild-type HSV-2 that was plaque purified and passaged in 20 μg/ml acyclovir 44 hours later, the plates were incubated, fixed, stained, and scored for numbers of plaques. The data presented are means of plaques scored from duplicate cultures. The percent inhibition observed in cultures treated with acyclovir or n-docosanol relative to untreated control cultures is denoted in parentheses.

Data set [7] in a line: Toxic, mutagenic, teratogenic properties.

As for `CCCCCCCCCCCCCCCCCCCCCCO` [n-docosanol], in data set [1], the “ID50 for inhibition of HSV production” value turned out to be 4 mM and the “ID50 for inhibition of plaque formation” value was 9 mM. In addition, the “effectiveness in inhibiting HSV-induced plaques, Vero versus MDBK cells” value in data set [2] was 3-4 fold. For the same compound, in data set [3], the “reduction of HSV core and envelope protein antigens detectable by ELISA” value is reported as “more than 80%”; the “reduction of numbers of infected cells expressing ICP4 by immunofluorescence” value was “more than 80%”; the “reduction of replication of infectious virions in secondary plaque assay cultures” value is given as at least 99%. Also, the “ED50 for inhibition of HSV replication relative to Tetronic” value in data set [4] (suspended in Pluronic) is “approximately 3 times higher”. In addition, the “ED50 for inhibition of HSV replication” value in data set [4] (suspended in Tetronic) was in the range of 5 to 10 mM. Further, the “inhibition of plaque formation” value in data set [5] (6-h interval between drug removal and HSV-I addition) was “no inhibition of HSV-I plaque formation was observed”. In addition, the inhibition at 9000 µM in data set [5] (Human alphaherpesvirus 1, Vero, added simultaneously with, or 3 h prior to virus addition, read-out: inhibition of plaque formation) came out at 28%. Besides, the “inhibition of plaque formation” value in data set [6] was “inhibited”. For the same compound, in data set [7], the “toxic, mutagenic, or teratogenic properties” value is “lacks any toxic, mutagenic, or teratogenic properties”.
